In patent publication US8784860B2 (Cordis Corporation, priority 2005, dated 2014):
“Also recorded” adds a separate entry of the source. Values belong to the molecule of their own block, whether it stands above or below them.

Experiments:
[1] = Porcine pharmacokinetics studies: in vivo release kinetics from stent coatings; settings: for drug remained in the drug coating: after eight (8) days of implantation, porcine, single layer sirolimus + cilostazol in EVA/BMA, 100 μg BMA overcoat (FIG. 83)
Description: The topcoat is two hundred micro grams.
FIG. 61 is a graphical representation of the in vivo release kinetics of cladribine from a polymeric coating on Bx Velocity® stents, available from Cordis Corporation, implanted in a Yorkshire pig. The basecoat comprises an 85/15 ratio of PVDF and HFP and cladribine for a total combined weight of one thousand eight hundred micrograms (cladribine comprising thirty percent of the total weight). The topcoat comprises an 85/15 ratio of PVDF/HFP and no cladribine. The total weight of the topcoat is three hundred micrograms.
(§1) The basecoat is applied to Bx Velocity® stents and implanted into Yorkshire pigs.
as §1
Another critical parameter for the performance of the thrombus resistance of a device coated with cilostazol is the duration of the drug release from the coating. This is of particular significance in the two weeks after device implantation. […] The purpose of the porcine PK study is to assess the local pharmacokinetics of a drug eluting stent at a given implantation time. Normally three stents are implanted in three different coronary arteries in a pig for a given time point and then retrieved for total drug recovery analysis. The stents are retrieved at predetermined time points; namely, 1, 3 and 8 days. The stents are extracted and the total amount of drug remaining on the stents is determined by analysis utilizing HPLC (high performance liquid chromatography) for total drug amount. The difference between the original amount of drug on the stent and the amount of drug retrieved at a given time represents the amount of drug released in that period. The continuous release of drug into surrounding arterial tissue is what prevents the neointimal growth and restenosis in the coronary artery. A normal plot represents the percentage of total drug released (%, y-axis) vs. time of implantation (day, x-axis). […] Curve 8102 represents cilostazol and curve 8104 represents sirolimus. […] In this exemplary configuration, the stent 8300 is coated with two layers. The first layer 8302 comprises a combination of sirolimus, cilostazol and a copolymer matrix of EVA/BMA. The second layer or diffusion overcoat 8304 comprises only BMA. More specifically, in this embodiment, the first layer 8302 comprises a combination of sirolimus and cilastazol that is forty-five (45) percent by weight of the total weight of the first layer 8302 and an EVA/BMA copolymer matrix that is fifty-five (55) percent by weight of the total weight of the first layer 8302. The diffusion overcoat comprises one hundred (100 μg) micrograms of BMA.

[2] = system: human coronary artery smooth muscle cell; assay: In vitro cell culture study of coronary artery smooth muscle cell proliferation (trichostatin A); format: cell-based
Description: FIG. 51 is a graph of the inhibition of coronary artery smooth muscle cells by trichostatin A in a cell culture study.

tumor cell lines = tumor cell lines (Woo et al., 2002); cited from earlier work
[3] = system: human coronary artery smooth muscle cells; assay: Anti-proliferative activity in synchronized cultured coronary artery smooth muscle cells, two percent fetal bovine serum; format: cell-based
Description: (§2) The multiple curves represent various concentrations of topotecan ranging from zero to three hundred nanomolar concentrations.
(§3) The multiple curves represent various concentrations of etoposide ranging from zero to eight hundred nanomolar concentrations.
Referring to FIG. 66, there is illustrated, in graphical format, the anti-proliferative activity of Panzem® in synchronized cultured human coronary artery smooth muscle cells stimulated with two percent fetal bovine serum.
The multiple curves represent various concentrations of Panzem® ranging from zero to 100 micromolar concentrations.

cell viability = assay: Cell viability assay; format: cell-based
Description: as §2, §3

[4] = system: human coronary artery smooth muscle cells; assay: Anti-proliferative activity in non-synchronized cultured coronary artery smooth muscle cells, two percent fetal bovine serum; format: cell-based
Description: The multiple curves represent various concentrations of mycophenolic acid ranging from zero to one thousand nanomolar concentrations.
FIG. 58 illustrates, in graphical format, the anti-proliferative activity of cladribine in non-synchronized cultured human coronary artery smooth muscle cells stimulated with two percent fetal bovine serum.
The multiple curves represent various concentrations of cladribine ranging from zero to nine hundred nanomolar concentrations.

bovine blood = assay: In vitro bovine blood loop model (In 111 labeled platelets); settings: sirolimus/cilostazol coated stents versus control
Description: The anti-thrombotic efficacy of the above-described three configurations is illustrated in FIG. 80. FIG. 80 illustrates the anti-thrombotic properties of the sirolimus/cilostazol combination coatings described above in an in vitro bovine blood loop model. In the in vitro bovine blood loop model, fresh bovine blood is heparinized to adjust for acute clotting time (ACT) of about two hundred (200) seconds. The platelet content in the blood is labeled through the use of Indium 111. In the study, a stent is deployed in a silicone tube, which is part of a closed loop system for blood circulation. The heparinzed blood is circulated through the closed loop system by means of a circulating pump. Blood clots and thrombus builds up on a stent surface over time and reduces the flow rate of blood through the stented loop. […] The control drug eluting stent is the Cypher® sirolimus eluting coronary stent available from Cordis Corporation. Bar 8004 is a stent coated with heparin and is available from Cordis Corporation under the […]® on the Bx Velocity® coronary stent trademark. Bar 8006 is a stent configured as set forth with respect to the architecture illustrated in FIG. 75. Bar 8008 is a stent configured as set forth with respect to the architecture illustrated in FIG. 77. Bar 8010 is a stent configured as set forth with respect to the architecture illustrated in FIG. 79.

[5] = In vitro release kinetics from stent coatings; format: physicochemical; settings: for in vitro release rate of cladribine, effect of topcoat: twenty-five percent ethanol/water, room temperature
[6] = Liquid formulations: drug concentration by liquid chromatography and visual observation; format: physicochemical; settings: water, ethanol less than two percent, Vitamin E TPGS
Protocol: The concentrations of each constituent were determined by liquid chromatography and are presented as weight by volume figures.
The liquid formulation was created utilizing the following process. Two hundred milligrams of sirolimus and two grams of ethanol were added to a pre-weighed twenty milliliter scintillation vial. The vial was vortexed and sonicated until the sirolimus was completely dissolved. Approximately six hundred milligrams of Vitamin E TPGS was then added to the solution of ethanol and sirolimus. The vial was vortexed again until a clear yellowish solution was obtained. Nitrogen gas was then used to reduce the amount of ethanol in the vial to approximately two hundred twenty-nine milligrams. In a separate vial, three hundred milligrams of Vitamin E TPGS was dissolved in eleven milliliters of purified water while undergoing vortexing. The Vitamin E TPGS and water solution was then added to the first vial containing the sirolimus, Vitamin E TPGS and ethanol. The first vial was then vortexed vigorously and continuously for three minutes.
In another exemplary embodiment, a liquid formulation of CCI-779, a sirolimus analog, is prepared utilizing ethanol, Vitamin E TPGS and water. This liquid formulation was made under similar conditions as to that described above. […]

[7] = system: human smooth muscle cells; assay: Cladribine Example: PDGF-stimulated proliferation of smooth muscle cells; format: cell-based; settings: from IC50 values 23 and 40 nanomolar
Protocol: To assess the ability of cladribine to prevent cell proliferation, human smooth muscle or endothelial cells (Clonetics, Walkersville, Md.) were seeded at a density of 2000 cells/cm^2 (approximately 3600 cells/well) into each well of 12-well plates and cultured with 1.5 ml of growth medium containing five percent fetal calf serum (FCS). After twenty-four hours, the growth medium was changed and fresh medium containing 10 ng/ml platelet-derived growth factor AB (PDGF AB; LIFE Technologies), as well as various concentrations of cladribine (0.001-10,000 nM) were added with triplicate wells. Medium was replaced with fresh cladribine-containing medium after three days. On day six, cells were detached by trypsinization to yield a cell suspension, lightly centrifuged to pellet and then counted manually using a Neubauer hemocytometer system. Cell viability was assessed by trypan blue exclusion.

[8] = system: human coronary artery smooth muscle cell; settings: concentrations 6.6 nanomolar up to 30,000.00 nanomolar
Description: In vitro cytotoxicity tests or assays may be utilized to determine if drugs, agents and/or compounds are potentially toxic and the level of toxicity. Essentially, in vitro cytotoxicity assays determine acute necrotic effects by a drug causing direct cellular damage. The idea behind these assays is that toxic chemicals affect basic functions of cells which are common to all cells. […] There are a number of different assays that may be utilized. In the present invention, the cytotoxicity assay utilized is based upon the measurement of cellular metabolic activity. A reduction in metabolic activity is an indication of cellular damage. Tests that can measure metabolic function measure cellular ATP levels or mitochondrial activity via MTS metabolism. FIG. 69 is a graphical representation of the results of an MTS assay of Panzem®.

[9] = 600 μg EVA/BMA basecoat with 30% rapamycin and 30% mycophenolic acid, no, 100 or 200 μg BMA topcoat

in vivo release rates of rapamycin from three rapamycin/cladribine coatings ([1]; 600 μg EVA/BMA basecoats with varied rapamycin/cladribine loads, 200 μg BMA topcoat, Yorkshire pigs): substantially similar to one another | drug remained in the drug coating [1]: ~80%
Structure (SMILES): CO[C@H]1C[C@@H]2CC[C@@H](C)[C@@](O)(O2)C(=O)C(=O)N2CCCC[C@H]2C(=O)O[C@H]([C@H](C)C[C@@H]2CC[C@@H](O)[C@H](OC)C2)CC(=O)[C@H](C)/C=C(\C)[C@@H](O)[C@@H](OC)C(=O)[C@H](C)C[C@H](C)/C=C/C=C/C=C/1C [rapamycin]
in vivo release of rapamycin, effect of topcoat [1, 9]: BMA topcoat does slow the release of rapamycin | in vivo release rate of rapamycin compared with mycophenolic acid ([1]; 600 μg PVDF basecoat, 200 μg PVDF topcoat): slower release rate than that of mycophenolic acid

Structure (SMILES): CC(/C=C/C(=O)NO)=C\[C@@H](C)C(=O)c1ccc(N(C)C)cc1 [trichostatin A]
inhibition of human coronary artery smooth muscle cell proliferation [2]: completely inhibit | IC50 ([2]; human coronary artery smooth muscle cells, read-out: anti-proliferative IC50): ~6 nM | anti-proliferative IC50's (tumor cell lines): low nM range

Structure (SMILES): COc1cc([C@@H]2c3cc4c(cc3[C@@H](O[C@@H]3O[C@@H]5CO[C@@H](C)O[C@H]5[C@H](O)[C@H]3O)[C@H]3COC(=O)[C@H]23)OCO4)cc(OC)c1O [etoposide]
effect of etoposide on the anti-proliferative rapamycin dose response curves ([3]; etoposide 255.7 to eight hundred nanomolar added to rapamycin): potentiate the anti-proliferative activity of rapamycin; also recorded: increases the percent inhibition of rapamycin alone | cytotoxicity in cell viability assay (cell viability; concentrations up to ten micromolar): non-cytotoxic

Structure (SMILES): COc1c(C)c2c(c(O)c1C/C=C(\C)CCC(=O)O)C(=O)OC2 [mycophenolic acid]
in vivo release of mycophenolic acid, effect of topcoat [1, 9]: BMA topcoat does slow the release of mycophenolic acid | in vivo elution of mycophenolic acid compared with rapamycin ([1]; EVA/BMA basecoat, BMA topcoat): elutes more completely over a shorter duration than the rapamycin | effect of mycophenolic acid on the anti-proliferative rapamycin dose response curve ([4]; mycophenolic acid zero to one thousand nanomolar added to rapamycin): potentiates the anti-proliferative activity of rapamycin

Structure (SMILES): CC[C@@]1(O)C(=O)OCc2c1cc1n(c2=O)Cc2cc3c(CN(C)C)c(O)ccc3nc2-1 [topotecan]
effect of topotecan on the anti-proliferative rapamycin dose response curves ([3]; topotecan 18.8 to 300 nanomolar added to rapamycin): potentiate the anti-proliferative activity of rapamycin; also recorded: increases the percent inhibition of rapamycin alone | cytotoxicity in cell viability assay (cell viability; concentrations up to one micromolar): non-cytotoxic

Structure (SMILES): O=C1CCc2cc(OCCCCc3nnnn3C3CCCCC3)ccc2N1 [cilostazol, 6[4-(1-cyclohexyl-1H-tetrazol-5-yl)-butoxy]-3,4-dihydro-2-(1H)-quinolinone]
thrombus formation (bovine blood): significantly reduces thrombus formation | drug remained in the drug coating [1]: ~80% | in vitro drug release rate, 200 μg versus 100 μg BMA diffusion overcoat ([5]; layered sirolimus/cilostazol coatings of FIGS. 75 and 77): comparatively slower from the configuration comprising the thicker diffusion overcoat of BMA | in vitro release ([5]; single layer sirolimus + cilostazol in EVA/BMA, 100 μg BMA overcoat (FIG. 83)): ~35%

concentration of CCI-779 in the final solution (HPLC) [6]: 15000 µg/mL
Structure (SMILES): CO[C@H]1C[C@@H]2CC[C@@H](C)[C@@](O)(O2)C(=O)C(=O)N2CCCC[C@H]2C(=O)O[C@H]([C@H](C)C[C@@H]2CC[C@@H](OC(=O)C(C)(CO)CO)[C@H](OC)C2)CC(=O)[C@H](C)/C=C(\C)[C@@H](O)[C@@H](OC)C(=O)[C@H](C)C[C@H](C)/C=C/C=C/C=C/1C [CCI-779]

in vivo elution of cladribine compared with rapamycin ([1]; EVA/BMA basecoat, 200 μg BMA topcoat, Yorkshire pigs): elutes more rapidly than rapamycin
Structure (SMILES): Nc1nc(Cl)nc2c1ncn2[C@H]1C[C@H](O)[C@@H](CO)O1 [cladribine, 2-chlorodeoxyadenosine]
in vivo elution of cladribine ([1]; Bx Velocity stent, Yorkshire pig, 1800 μg PVDF/HFP (85/15) basecoat with 30% cladribine, 300 μg topcoat): after the first day, the elution of cladribine levels off significantly | potency as inhibitor of smooth muscle cells relative to endothelial cells [7]: approximately twice | in vitro release rate of cladribine, effect of topcoat ([5]; non-sterile PVDF/HFP (85/15) coatings): increase in topcoat weight or thickness led to a decrease in the release rate of cladribine | in vitro release rate of cladribine, effect of topcoat ([5]; sterile PVDF/HFP coating): drastic decrease of release rate of cladribine | effect of cladribine on the anti-proliferative rapamycin dose response curves ([4]; cladribine 56.25 to 900 nanomolar added to rapamycin): potentiate the anti-proliferative activity of rapamycin; also recorded: increases the percent inhibition of rapamycin alone | inhibition of human coronary artery smooth muscle cell proliferation ([4]; non-synchronized cells, two percent fetal bovine serum): completely inhibits

Structure (SMILES): COc1cc2c(cc1O)CC[C@@H]1[C@@H]2CC[C@]2(C)[C@@H](O)CC[C@@H]12 [Panzem®, 2-methoxyestradiol]
effect of Panzem on the anti-proliferative activity of rapamycin ([3]; Panzem 0.813 to 100 micromolar added to rapamycin): potentiation of rapamycin by Panzem®; also recorded: increases the percent of inhibition of rapamycin alone | anti-proliferative activity (single agent) ([3]; synchronized human coronary artery smooth muscle cells, two percent fetal bovine serum): extremely effective inhibitor of human coronary artery smooth muscle cell proliferation in vitro | cytotoxicity, MTS assay [8]: do not reduce human coronary artery smooth muscle cell survival
